Data taken from US20200147116A1, “Use of Paeoniflorin-6'-O-benzenesulfonate in treatment of Sjögren's syndrome” (NINGBO ZHIMING BIOTECHNOLOGY CO., LTD., priority 2017, published 2020).
Several values for one entry are separate records, joined by “and”; a condition that tells them apart may be missing. Equal entries are not always repeated. Marks after values point to notes of the source that are not given here.

Tests used:
Type in all cases: in vivo
[1] = tested on: Sjögren's syndrome model mice (C57BL/6 female mice); test: Saliva amount in induced Sjögren's syndrome model mice (wet weight method after pilocarpine); conditions: for Saliva amount in SS mice, Pre-administration / Saliva amount, Pre-administration: baseline before administration; for Saliva amount, One week after: one week of administration; for Curative effect judged on saliva amount after one week of medication: high dose of CP-25, TGP, Pae, HCQ at the doses of Table 3
Experimental: […] Water intake, saliva amount and submaxillary gland pathological analysis and score were determined respectively, on the day before administration, the 7th day and 14th day after administration. The therapeutic effects of CP-25 on Sjögren's syndrome were evaluated by comparison of changes of each index before and after treatment. 2 Sjögren's syndrome model mice: C57BL/6 female mice housed in a SPF environment with successful modeling (The animal model was made via repeated multi-point intracutaneous injection of submaxillary gland homogenate of homologous mice to tail and back of mice). The animal model was made via repeated multi-point intracutaneously injection of submaxillary gland homogenate of homologous mice to tail and back of mice, and the mice with successful modeling were randomly assigned to each group according to comprehensive conditions of mice. At the same time, the average weight and status of each group of mice should be as close as possible. […] […] High dose of said pharmaceutical should be incubated for half an hour before use. Before measurement, mice were anesthetized via intraperitoneal injection of 0.05 ml of 2.4% pentobarbital sodium, and the satisfactory anesthesia was smooth breathing, corneal reflex disappearance and limb muscle relaxation. After complete anesthesia, a mouse was placed in slightly tilted trendelenburg position, and its body was kept warm using the heater. The mouse was injected intraperitoneally with 0.1 ml of 0.025 mg/ml Pilocarpine, and 5 min later, a weighed cotton ball was placed in the mouth of the mouse for 10 min. After taking the ball out, the saliva weight of mice was measured by the wet weight method.

[2] = tested on: submaxillary gland in SS mice; test: Histopathological examination and grading of submaxillary gland in SS mice (H&E, Chisholm-Mason scale); conditions: two weeks of administration, four mice of each group
Experimental: (§1) Mice were sacrificed after two weeks of administration, and then submaxillary glands of four mice of each group were removed and pathologically observed. At first, the submaxillary gland should be fixed in 10% buffered formalin for 24 h, followed by washing, dehydration and clearing, wax-filling, embedding, sectioning and finally H&E staining. […] Results were graded pathologically.
(§2) Note: The histological findings graded of submaxillary glands according to the Chisholm-Mason scale; grade 0, absence of lymphocytic infiltration; grade I, slight lymphocytic infiltration; grade II, moderate lymphocytic infiltration; grade III, one focus of lymphocytic infiltration per 4 mm^2 tissue; grade IV, more than one focus of lymphocytic infiltration per 4 mm^2 tissue (Note: One focus of lymphocytic infiltration has been defined as an aggregate of 50 or more lymphocytes gathered in the labial gland stroma per 4 mm^2 of tissue.

NOD mice = test: Saliva amount in NOD mice; conditions: NOD mice; for Saliva amount in NOD mice, Pre-administration: baseline before administration
Experimental: Before measurement, mice were anesthetized via intraperitoneal injection of 0.05 ml of 2.4% pentobarbital sodium, and the satisfactory anesthesia was smooth breathing, corneal reflex disappearance and limb muscle relaxation. After complete anesthesia, a mouse was placed in slightly tilted trendelenburg position, and its body was kept warm using the heater. The mouse was injected intraperitoneally with 0.1 ml of 0.025 mg/ml Pilocarpine, and 5 min later, a weighed cotton ball was placed in the mouth of the mouse for 10 min. After taking the ball out, the saliva weight of mice was measured by the wet weight method.
Therapeutic effects of on Sjögren's syndrome CP-25 in NOD mice.

[3] = tested on: submaxillary glands in NOD mice; test: Pathological grading of submaxillary glands in NOD mice; conditions: NOD mice
Experimental: as §1, §2

SS mice = test: Organic indexes (spleen, submaxillary gland, thymus) in SS mice; conditions: 70 mg/kg
Source text: 2 Sjögren's syndrome model mice: C57BL/6 female mice housed in a SPF environment with successful modeling (The animal model was made via repeated multi-point intracutaneous injection of submaxillary gland homogenate of homologous mice to tail and back of mice). The animal model was made via repeated multi-point intracutaneously injection of submaxillary gland homogenate of homologous mice to tail and back of mice, and the mice with successful modeling were randomly assigned to each group according to comprehensive conditions of mice. At the same time, the average weight and status of each group of mice should be as close as possible. Paeoniflorin-6′-O-benzenesulfonate, white crystalline powder, purity 98.5%, was dissolved in trace ethanol (75 mg of CP-25 was soluble in 40 μl of ethanol), and then sodium carboxymethylcellulose was added to formulate a suspension of CP-25. Corresponding dose gradient, low dose (17.5 mg/kg), medium dose (35 mg/kg) and high dose (70 mg/kg) of said pharmaceutical should be prepared before medication, stored in 4° C. refrigerator for use. High dose of said pharmaceutical should be incubated for half an hour before use.

NOD model mice = test: Organic indexes (spleen, submaxillary gland, thymus) in NOD model mice; conditions: 70 mg/kg

In the case of `CCN(CCO)CCCC(C)Nc1ccnc2cc(Cl)ccc12` (stereo not shown) [HCQ, hydroxychloroquine, reference compound], the “Saliva amount in SS mice, One week after administration” value ([1]; Example 1, C57BL/6 SS mice, 80 mg/kg) is reported as 18.17 ± 3.65 mg/each mouse/10 min, the “Saliva amount in SS mice, Pre-administration” value ([1]; Example 1, C57BL/6 SS mice, dose group 80 mg/kg) is reported as 23.17 ± 2.79 mg/each mouse/10 min and the “Saliva amount, One week after” value ([1]; SS model mice, 80 mg/kg) is reported as 18.17 ± 3.65 mg/10 min. The “Saliva amount, Pre-administration” value ([1]; SS model mice, dose group 80 mg/kg) was 23.17 ± 2.79 mg/10 min, the “Curative effect judged on saliva amount after one week of medication” value ([1]; SS model mice) was “did not show apparent effect” and the “Score: mice with submaxillary gland pathology Grade 0” value ([2]; 80 mg/kg) was 0. For the same molecule, the “Score: mice with submaxillary gland pathology Grade I” value ([2]; 80 mg/kg) was 0, the “Score: mice with submaxillary gland pathology Grade II” value ([2]; 80 mg/kg) was 0 and the “Score: mice with submaxillary gland pathology Grade III” value ([2]; 80 mg/kg) was 3. For the same molecule, the “Score: mice with submaxillary gland pathology Grade IV” value ([2]; 80 mg/kg) was 1^#, the “Saliva amount in NOD mice, One week after administration” value (NOD mice; 80 mg/kg) was 17.00 ± 1.61 mg/each mouse/10 min and the “Saliva amount in NOD mice, Two weeks after administration” value (NOD mice; 80 mg/kg) was 17.00 ± 1.41 mg/each mouse/10 min. For the same molecule, the “Saliva amount in NOD mice, Pre-administration” value (NOD mice; dose group 80 mg/kg) was 19.17 ± 3.18 mg/each mouse/10 min, the “Score: mice with submaxillary gland pathology Grade 0” value ([3]; 80 mg/kg) was 0 and the “Score: mice with submaxillary gland pathology Grade I” value ([3]; 80 mg/kg) was 0. For the same molecule, the “Score: mice with submaxillary gland pathology Grade II” value ([3]; 80 mg/kg) was 0, the “Score: mice with submaxillary gland pathology Grade III” value ([3]; 80 mg/kg) was 3 and the “Score: mice with submaxillary gland pathology Grade IV” value ([3]; 80 mg/kg) was 1 ^#.

For `C[C@@]12C[C@@]3(O)O[C@@H](O1)[C@]1(COC(=O)c4ccccc4)[C@H]3C[C@@]12O[C@@H]1O[C@H](CO)[C@@H](O)[C@H](O)[C@H]1O` [Pae, Paeoniflorin], the “Saliva amount in SS mice, One week after administration” value ([1]; Example 1, C57BL/6 SS mice, 70 mg/kg) was 17.01 ± 2.10 mg/each mouse/10 min, the “Saliva amount in SS mice, Two weeks after administration” value ([1]; Example 1, C57BL/6 SS mice, 70 mg/kg, two weeks) was 17.17 ± 2.72^ mg/each mouse/10 min and the “Saliva amount in SS mice, Pre-administration” value ([1]; Example 1, C57BL/6 SS mice, dose group 70 mg/kg) was 23.50 ± 2.89 mg/each mouse/10 min. For the same molecule, the “Saliva amount, One week after” value ([1]; SS model mice, 70 mg/kg) was 17.01 ± 2.10 mg/10 min, the “Saliva amount, Two weeks after” value ([1]; SS model mice, 70 mg/kg, two weeks of administration) was 17.17 ± 2.72^ mg/10 min and the “Saliva amount, Pre-administration” value ([1]; SS model mice, dose group 70 mg/kg) was 23.50 ± 2.89 mg/10 min. For the same molecule, the “Curative effect judged on saliva amount after one week of medication” value ([1]; SS model mice) was “did not show apparent effect”, the Spleen index (SS mice) was 9.15 ± 1.44 mg/g and the Submaxillary gland index (SS mice) was 3.71 ± 0.68 mg/g. The Thymus index (SS mice) was 0.85 ± 0.23 mg/g, the “Score: mice with submaxillary gland pathology Grade 0” value ([2]; 70 mg/kg) was 0 and the “Score: mice with submaxillary gland pathology Grade I” value ([2]; 70 mg/kg) was 0. The “Score: mice with submaxillary gland pathology Grade II” value ([2]; 70 mg/kg) was 0, the “Score: mice with submaxillary gland pathology Grade III” value ([2]; 70 mg/kg, 70 mg/kg) was 2 and 1 and the “Saliva amount in NOD mice, One week after administration” value (NOD mice; 70 mg/kg) was 15.40 ± 1.62 mg/each mouse/10 min. For the same molecule, the “Saliva amount in NOD mice, Two weeks after administration” value (NOD mice; 70 mg/kg) was 14.75 ± 1.25 mg/each mouse/10 min, the “Saliva amount in NOD mice, Pre-administration” value (NOD mice; dose group 70 mg/kg) was 19.83 ± 1.94 mg/each mouse/10 min and the Spleen index (NOD model mice) was 5.3 ± 0.5 mg/g. The Submaxillary gland index (NOD model mice) was 4.5 ± 0.5^ mg/g, the Thymus index (NOD model mice) was 1.0 ± 0.1 mg/g and the “Score: mice with submaxillary gland pathology Grade 0” value ([3]; 70 mg/kg) was 0. For the same molecule, the “Score: mice with submaxillary gland pathology Grade I” value ([3]; 70 mg/kg) was 0, the “Score: mice with submaxillary gland pathology Grade II” value ([3]; 70 mg/kg) was 0 and the “Score: mice with submaxillary gland pathology Grade III” value ([3]; 70 mg/kg) was 1. The “Score: mice with submaxillary gland pathology Grade IV” value ([3]; 70 mg/kg) was 3.
